Data reported in US6479435B1, “Diaryl ethers and processes for their preparation and herbicidal and desiccant compositions containing them” (ISK Americas Incorporated, priority 1997, dated 2002).

Experiments:
Assay type in all cases: in vivo
[1] = test system: upland rice (Oryza sp., var.Tebonnet, RICE); experiment: Pre-emerge greenhouse test, crop damage rating; conditions: 1000 g ai/ha, 14 days after application, rating scale 0-100
Description: (§1) A standard greenhouse herbicide activity screening system was used to evaluate the herbicidal efficacy and crop safety of these test compounds. Six broadleaf weed species including redroot pigweed (Amaranthus retroflexus, AMARE), velvetleaf (Abutilon theophrasti, ABUTH), sicklepod (Cassia obtusifolia, CASOB), ivyleaf morningglory (Ipomoea hederacea, IPOHE), lambsquarters (Chenopodium album, CHEAL) and common ragweed (Ambrosia artemisiifolia L., AMBEL) were used as test species. Four grass weed species including green foxtail (Setaria viridis, SETVI), barnyardgrass (Echinochloa crusgalli, ECHCG), Johnsongrass (Sorghum halepense, SORHA), and large crabgrass (Digitaria sanguinalis, DIGSA) were also used. In addition, three crop species, field corn (Zea mays L., var. Dekalb 535, CORN), soybean (Glycine max L., var. Pella 86, SOY), and upland rice (Oryza sp., var.Tebonnet, RICE) were included.
(§2) All plants were grown in 10 cm square plastic pots which were filled with a sandy loam soil mix. For preemerge tests, seeds were planted one day prior to application of the test compounds. Immediately after application, test units of the pre-emerge applications were watered at the soil surface to incorporate the test materials. Subsequently, these test units were bottom-watered.
(§3) All test compounds were dissolved in acetone and applied to the test units in a volume of 187 l/ha. Test materials were applied at rates ranging from 125 g ai/ha to 1000 g ai/ha using a track sprayer equipped with a TJ8001E even flow flat fan spray nozzle. Plants were arranged on a shelf so that the top of the canopy (post-emerge) or top of the soil surface (pre-emerge) was 40-45 cm below the nozzle. Pressurized air was used to force the test solution through the nozzle as it was mechanically advanced (via electrically driven chain drive) over the top of all test plants/pots. This application simulates a typical commercial field herbicide application.
(§4) At 14 days after application of the test materials, phytotoxicity ratings were recorded. A rating scale of 0-100 was used as previously described in Research Methods in Weed Science, 2nd edition, B. Truelove, Ed., Southern Weed Science Society, Auburn University, Auburn, Ala., 1977. Briefly, “0” corresponds to no damage and “100” corresponds to complete death of all plants in the test unit. This scale was used both to determine efficacy against weed species and damage to crop species. Herbicide activity data for various compounds of this invention, which are shown by compound number in Tables 1-9, are shown in Tables 13 and 14.

[2] = test system: field corn (Zea mays L., var. Dekalb 535, CORN); experiment: Pre-emerge greenhouse test, crop damage rating; conditions: 1000 g ai/ha, 14 days after application, rating scale 0-100
Description: as §1, §2, §3, §4

[3] = test system: soybean (Glycine max L., var. Pella 86, SOY); experiment: Post-emerge greenhouse test, crop damage rating; conditions: 1000 g al/ha, 14 days after application
Description: as §1, §3
(§5) In the post-emerge test, a commercial non-ionic surfactant was also included (0.25% v/v) to enhance wetting of the leaf surfaces Qf target plants at rates ranging from 63 g ai/ha to 1000 g ai/ha. For post-emerge tests, seeds were planted 8-21 days prior to the test to allow emergence and good foliage development prior to application of the test substances. At the time of the post-emerge application, plants of all species were usually at the 2-3 leaf stage of development. Post-emerge test units were always bottom-watered.
as §4

[4] = test system: soybean (Glycine max L., var. Pella 86, SOY); experiment: Pre-emerge greenhouse test, crop damage rating; conditions: 1000 g ai/ha, 14 days after application, rating scale 0-100
Description: as §1, §2, §3, §4

[5] = test system: sicklepod (Cassia obtusifolia, CASOB); experiment: Pre-emerge greenhouse herbicide test, phytotoxicity rating; conditions: 1000 g ai/ha, 14 days after application, rating scale 0-100
Description: as §1, §2, §3, §4

[6] = test system: large crabgrass (Digitaria sanguinalis, DIGSA); experiment: as above; conditions: 1000 g ai/ha, 14 days after application, rating scale 0-100
Description: as §1, §2, §3, §4

[7] = test system: lambsquarters (Chenopodium album, CHEAL); experiment: as above; conditions: 1000 g ai/ha, 14 days after application, rating scale 0-100
Description: as §1, §2, §3, §4

[8] = test system: redroot pigweed (Amaranthus retroflexus, AMARE); experiment: as above; conditions: 1000 g ai/ha, 14 days after application, rating scale 0-100
Description: as §1, §2, §3, §4

[9] = test system: green foxtail (Setaria viridis, SETVI); experiment: as above; conditions: 1000 g ai/ha, 14 days after application, rating scale 0-100
Description: as §1, §2, §3, §4

[10] = test system: velvetleaf (Abutilon theophrasti, ABUTH); experiment: as above; conditions: 1000 g ai/ha, 14 days after application, rating scale 0-100
Description: as §1, §2, §3, §4

[11] = test system: Johnsongrass (Sorghum halepense, SORHA); experiment: as above; conditions: 1000 g ai/ha, 14 days after application, rating scale 0-100
Description: as §1, §2, §3, §4

[12] = test system: ivyleaf morningglory (Ipomoea hederacea, IPOHE); experiment: as above; conditions: 1000 g ai/ha, 14 days after application, rating scale 0-100
Description: as §1, §2, §3, §4

[13] = test system: barnyardgrass (Echinochloa crusgalli, ECHCG); experiment: as above; conditions: 1000 g ai/ha, 14 days after application, rating scale 0-100
Description: as §1, §2, §3, §4

[14] = test system: upland rice (Oryza sp., var.Tebonnet, RICE); experiment: Post-emerge greenhouse test, crop damage rating; conditions: 1000 g al/ha, 14 days after application
Description: as §1, §3, §5, §4

[15] = test system: field corn (Zea mays L., var. Dekalb 535, CORN); experiment: Post-emerge greenhouse test, crop damage rating; conditions: 1000 g al/ha, 14 days after application
Description: as §1, §3, §5, §4

[16] = test system: sicklepod (Cassia obtusifolia, CASOB); experiment: Post-emerge greenhouse herbicide test, phytotoxicity rating; conditions: 1000 g al/ha, 14 days after application
Description: as §1, §3, §5, §4

[17] = test system: large crabgrass (Digitaria sanguinalis, DIGSA); experiment: as above; conditions: 1000 g al/ha, 14 days after application
Description: as §1, §3, §5, §4

[18] = test system: lambsquarters (Chenopodium album, CHEAL); experiment: as above; conditions: 1000 g al/ha, 14 days after application
Description: as §1, §3, §5, §4

[19] = test system: redroot pigweed (Amaranthus retroflexus, AMARE); experiment: as above; conditions: 1000 g al/ha, 14 days after application
Description: as §1, §3, §5, §4

[20] = test system: green foxtail (Setaria viridis, SETVI); experiment: as above; conditions: 1000 g al/ha, 14 days after application
Description: as §1, §3, §5, §4

[21] = test system: velvetleaf (Abutilon theophrasti, ABUTH); experiment: as above; conditions: 1000 g al/ha, 14 days after application
Description: as §1, §3, §5, §4

[22] = test system: Johnsongrass (Sorghum halepense, SORHA); experiment: as above; conditions: 1000 g al/ha, 14 days after application
Description: as §1, §3, §5, §4

[23] = test system: ivyleaf morningglory (Ipomoea hederacea, IPOHE); experiment: as above; conditions: 1000 g al/ha, 14 days after application
Description: as §1, §3, §5, §4

[24] = test system: barnyardgrass (Echinochloa crusgalli, ECHCG); experiment: as above; conditions: 1000 g al/ha, 14 days after application
Description: as §1, §3, §5, §4

In the case of `O=c1cc2n(c(=O)n1-c1cc(Oc3ccccc3[N+](=O)[O-])c(Cl)cc1F)CCC2` [Compound 5-1], the “crop damage rating RICE” value [1] is reported as 70, the “crop damage rating CORN” value [2] is reported as 5 and the “SOY crop damage rating (0-100)” value [3] is reported as 40. The “crop damage rating SOY” value [4] was 55, the “phytotoxicity rating CASOB” value [5] was 40 and the “phytotoxicity rating DIGSA” value [6] was 100. For the same compound, the “phytotoxicity rating CHEAL” value [7] was 100, the “phytotoxicity rating AMARE” value [8] was 99 and the “phytotoxicity rating SETVI” value [9] was 99. For the same compound, the “phytotoxicity rating ABUTH” value [10] was 100, the “phytotoxicity rating SORHA” value [11] was 90 and the “phytotoxicity rating IPOHE” value [12] was 70. The “phytotoxicity rating ECHCG” value [13] was 95, the “RICE crop damage rating (0-100)” value [14] was 10 and the “CORN crop damage rating (0-100)” value [15] was 0. The “CASOB phytotoxicity rating (0-100)” value [16] was 10, the “DIGSA phytotoxicity rating (0-100)” value [17] was 0 and the “CHEAL phytotoxicity rating (0-100)” value [18] was 80. The “AMARE phytotoxicity rating (0-100)” value [19] was 30, the “SETVI phytotoxicity rating (0-100)” value [20] was 20 and the “ABUTH phytotoxicity rating (0-100)” value [21] was 100. The “SORHA phytotoxicity rating (0-100)” value [22] was 10, the “IPOHE phytotoxicity rating (0-100)” value [23] was 90 and the “ECHCG phytotoxicity rating (0-100)” value [24] was 30.
For `CCOC(=O)C(C)Oc1ccc(Oc2cc(-n3c(=O)cc4n(c3=O)CCC4)c(F)cc2Cl)cc1` (centres unmarked) [Compound 5-6], the “crop damage rating RICE” value [1] was 80, the “crop damage rating CORN” value [2] was 40 and the “SOY crop damage rating (0-100)” value [3] was 80. For the same compound, the “crop damage rating SOY” value [4] was 60, the “phytotoxicity rating CASOB” value [5] was 40 and the “phytotoxicity rating DIGSA” value [6] was 70. The “phytotoxicity rating CHEAL” value [7] was 100, the “phytotoxicity rating AMARE” value [8] was 100 and the “phytotoxicity rating SETVI” value [9] was 100. The “phytotoxicity rating ABUTH” value [10] was 100, the “phytotoxicity rating SORHA” value [11] was 50 and the “phytotoxicity rating IPOHE” value [12] was 100. The “phytotoxicity rating ECHCG” value [13] was 70, the “RICE crop damage rating (0-100)” value [14] was 60 and the “CORN crop damage rating (0-100)” value [15] was 80. For the same compound, the “CASOB phytotoxicity rating (0-100)” value [16] was 40, the “DIGSA phytotoxicity rating (0-100)” value [17] was 40 and the “CHEAL phytotoxicity rating (0-100)” value [18] was 100. The “AMARE phytotoxicity rating (0-100)” value [19] was 90, the “SETVI phytotoxicity rating (0-100)” value [20] was 50 and the “ABUTH phytotoxicity rating (0-100)” value [21] was 100. The “SORHA phytotoxicity rating (0-100)” value [22] was 95, the “IPOHE phytotoxicity rating (0-100)” value [23] was 100 and the “ECHCG phytotoxicity rating (0-100)” value [24] was 95.
In the case of `O=c1cc2n(c(=O)n1-c1cc(Oc3ncccc3C(F)(F)F)c(Cl)cc1F)CCC2` [Compound 5-10, 2-[4-chloro-2-fluoro-5-(3-trifluoromethyl-2-pyridyloxy)phenyl]-6,7-dihydropyrrolo[1,2-c]pyrimidine-1,3(2H,5H)dione], the “phytotoxicity rating CASOB” value [5] is reported as 0, the “phytotoxicity rating DIGSA” value [6] is reported as 100 and the “phytotoxicity rating CHEAL” value [7] is reported as 100. For the same compound, the “phytotoxicity rating AMARE” value [8] was 100, the “phytotoxicity rating SETVI” value [9] was 100 and the “phytotoxicity rating ABUTH” value [10] was 100. The “phytotoxicity rating SORHA” value [11] was 100, the “phytotoxicity rating IPOHE” value [12] was 100 and the “phytotoxicity rating ECHCG” value [13] was 100. The “CASOB phytotoxicity rating (0-100)” value [16] was 30, the “DIGSA phytotoxicity rating (0-100)” value [17] was 10 and the “CHEAL phytotoxicity rating (0-100)” value [18] was 80. For the same compound, the “AMARE phytotoxicity rating (0-100)” value [19] was 80, the “SETVI phytotoxicity rating (0-100)” value [20] was 20 and the “ABUTH phytotoxicity rating (0-100)” value [21] was 100. The “SORHA phytotoxicity rating (0-100)” value [22] was 70, the “IPOHE phytotoxicity rating (0-100)” value [23] was 70 and the “ECHCG phytotoxicity rating (0-100)” value [24] was 80.
`N#Cc1ccc(Oc2cc(-n3c(=O)cc4n(c3=O)CCC4)c(F)cc2Cl)nc1` [Compound 5-11] was tested, and the “crop damage rating RICE” value [1] was 80, the “crop damage rating CORN” value [2] was 30 and the “SOY crop damage rating (0-100)” value [3] was 40. The “crop damage rating SOY” value [4] was 60, the “phytotoxicity rating CASOB” value [5] was 30 and the “phytotoxicity rating DIGSA” value [6] was 90. For the same compound, the “phytotoxicity rating CHEAL” value [7] was 100, the “phytotoxicity rating AMARE” value [8] was 80 and the “phytotoxicity rating SETVI” value [9] was 95. The “phytotoxicity rating SORHA” value [11] was 99, the “phytotoxicity rating IPOHE” value [12] was 80 and the “phytotoxicity rating ECHCG” value [13] was 95. For the same compound, the “RICE crop damage rating (0-100)” value [14] was 25, the “CORN crop damage rating (0-100)” value [15] was 15 and the “CASOB phytotoxicity rating (0-100)” value [16] was 10. The “DIGSA phytotoxicity rating (0-100)” value [17] was 0, the “CHEAL phytotoxicity rating (0-100)” value [18] was 90 and the “AMARE phytotoxicity rating (0-100)” value [19] was 70. For the same compound, the “SETVI phytotoxicity rating (0-100)” value [20] was 10, the “ABUTH phytotoxicity rating (0-100)” value [21] was 100 and the “SORHA phytotoxicity rating (0-100)” value [22] was 20. The “IPOHE phytotoxicity rating (0-100)” value [23] was 90 and the “ECHCG phytotoxicity rating (0-100)” value [24] was 20.
